Test results: US9957251B2 (Takeda Pharmaceutical Company Limited, priority 2014, dated 2018)

Legend:
[1] = molecular target: T1, CDK19 (CDC2L6/CycC) (Homo sapiens, UniProt Q9BWU1); assay: CDK19 inhibitory activity (TR-FRET, Kinase Tracer-236 displacement); format: binding; details: 1 μM of the test compound; read-out: Percent inhibition of CDK19 activity (%)
T1 construct: purchased Carna Biosciences
Description: (§1) The compound of the present invention was evaluated for its CDK8 inhibitory activity and CDK19 inhibitory activity by the following method. […] The primary diluted solution was dispensed in the amount of 2 μL/well to a 384-well plate, and then, a mixed solution of Eu^3+ Cryptate conjugated mouse monoclonal antibody anti-glutathione S-transferase (Cisbio) diluted 267-fold with an assay buffer and 60 nM Kinase Tracer-236 (Life technologies) was added thereto at 2 μL/well. After the addition, each kinase solution (84 ng/mL CDK8/CycC (Carna Biosciences) diluted with an assay buffer used for CDK8 inhibitory activity measurement, and 87 ng/mL CDC2L6/CycC (Carna Biosciences) diluted with an assay buffer used for CDK19 inhibitory activity measurement) was further added thereto at 2 μL/well. After the addition, the plate was left standing at room temperature for 1 hour, and then, the fluorescence intensity (excitation wavelength 320 nm, fluorescence wavelength 615 nm, 665 nm, delay time 50 μsec) was measured using an EnVision plate reader (PerkinElmer).

[2] = system: human multiple myeloma RPMI8226 cells; assay: Inhibitory activity against human multiple myeloma RPMI8226 cell growth (CellTiter-Glo); format: cell-based; details: Homo sapiens, RPMI-8226, 192 h, 1 μM of the test compound, cultured for 8 days; read-out: Percent inhibition of RPMI8226 cell growth (%)
Description: The compound of the present invention was evaluated for its inhibitory activity against human multiple myeloma RPMI8226 cell growth by the following method.
A suspension of human multiple myeloma RPMI8226 cells (purchased from the Health Protection Agency) was inoculated at 40 μL (300 cells/well) to a 384-well plate and cultured at 37° C. for 1 day in a 5% CO2 incubator. After the culture, each test compound solution was added thereto at a test concentration of 1 μM using TECAN D300, and the cells were further cultured for 8 days. After the culture, CellTiter-Glo™ Luminescent Cell Viability Assay reagent (Promega) was added at 40 μL/well to a 384-well plate, and the amount of luminescence was measured using a luminometer. Inhibitory activity against human multiple myeloma RPMI8226 cell growth (percent inhibition (%)) of the test compound was calculated according to the following formula, which is based on the hypothesis that the amount of residual ATP reflects the number of cells. In this formula, 100% control represents the amount of luminescence from a well with only 0.1% DMSO added. Percent inhibition (%)=(1−(amount of luminescence of the test compound)÷(100% control))×100

[3] = molecular target: T2, CDK8/CycC (Homo sapiens, UniProt P49336); assay: CDK8 inhibitory activity (TR-FRET, Kinase Tracer-236 displacement); format: binding; details: 1 μM of the test compound; read-out: Percent inhibition of CDK8 activity (%)
T2 construct: purchased Carna Biosciences
T2 sequence (P49336 whole entry): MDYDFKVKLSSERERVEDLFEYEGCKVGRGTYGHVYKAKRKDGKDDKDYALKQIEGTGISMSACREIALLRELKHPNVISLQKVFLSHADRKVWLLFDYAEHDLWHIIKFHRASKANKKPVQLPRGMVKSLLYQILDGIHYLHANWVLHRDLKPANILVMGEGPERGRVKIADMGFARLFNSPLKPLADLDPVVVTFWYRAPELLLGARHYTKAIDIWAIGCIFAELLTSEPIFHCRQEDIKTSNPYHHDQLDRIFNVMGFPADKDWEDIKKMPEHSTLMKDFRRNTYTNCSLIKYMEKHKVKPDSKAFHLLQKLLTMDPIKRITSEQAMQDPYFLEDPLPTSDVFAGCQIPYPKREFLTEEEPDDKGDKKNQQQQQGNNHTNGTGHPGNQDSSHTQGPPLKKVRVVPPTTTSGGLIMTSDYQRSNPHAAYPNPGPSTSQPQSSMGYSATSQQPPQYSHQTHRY
T2 sequence (P24863 whole entry partner): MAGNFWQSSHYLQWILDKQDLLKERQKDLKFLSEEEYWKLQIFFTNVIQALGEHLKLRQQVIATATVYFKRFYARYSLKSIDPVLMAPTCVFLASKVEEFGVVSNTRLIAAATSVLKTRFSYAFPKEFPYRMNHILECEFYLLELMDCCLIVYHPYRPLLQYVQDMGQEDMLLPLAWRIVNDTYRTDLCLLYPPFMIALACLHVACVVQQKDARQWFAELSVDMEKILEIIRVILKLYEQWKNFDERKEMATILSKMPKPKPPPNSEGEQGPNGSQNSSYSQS
Description: as §1

T1 sequence (Q9BWU1 whole entry): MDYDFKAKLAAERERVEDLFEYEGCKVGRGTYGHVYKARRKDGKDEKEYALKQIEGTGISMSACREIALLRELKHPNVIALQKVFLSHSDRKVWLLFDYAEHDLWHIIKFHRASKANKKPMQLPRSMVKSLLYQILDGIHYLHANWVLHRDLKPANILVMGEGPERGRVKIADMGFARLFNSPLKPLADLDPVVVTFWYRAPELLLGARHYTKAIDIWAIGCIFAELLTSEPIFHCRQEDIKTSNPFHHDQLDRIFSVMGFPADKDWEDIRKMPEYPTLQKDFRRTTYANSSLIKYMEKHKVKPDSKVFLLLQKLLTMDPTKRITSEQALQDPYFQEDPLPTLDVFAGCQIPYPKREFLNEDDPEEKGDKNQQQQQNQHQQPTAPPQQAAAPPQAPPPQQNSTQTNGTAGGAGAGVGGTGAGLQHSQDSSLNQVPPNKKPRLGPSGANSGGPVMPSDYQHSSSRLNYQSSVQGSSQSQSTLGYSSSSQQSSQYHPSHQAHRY
T1 sequence (P24863 whole entry partner): as the sequence (P24863 whole entry partner) above

Row | Structure (SMILES) | inhibition at 1 µM [1] | inhibition at 1 µM [2] | inhibition at 1 µM [3]
1 | Cn1cc(-c2ccncc2/C=C/C(=O)Nc2ccc3ncsc3c2)cn1 [Example 169, (2E)-N-(1,3-benzothiazol-6-yl)-3-(4-(1-methyl-1H-pyrazol-4-yl)pyridin-3-yl)acrylamide] | 90% | 53% | 94%
2 | Cn1cc(-c2ccncc2/C=C/C(=O)Nc2ccc3c(c2)CCO3)cn1 [Example 172, (2E)-N-(2,3-dihydro-1-benzofuran-5-yl)-3-(4-(1-methyl-1H-pyrazol-4-yl)pyridin-3-yl)acrylamide] | 95% | 55% | 96%
3 | Cn1cc(-c2ccncc2/C=C/C(=O)Nc2ccc3c(ccn3C)c2)cn1 [Example 175, (2E)-N-(1-Methyl-1H-indol-5-yl)-3-(4-(1-methyl-1H-pyrazol-4-yl)pyridin-3-yl)acrylamide] | 99% | 55% | 98%
4 | Cn1cc(-c2ccncc2/C=C/C(=O)Nc2ccc3c(c2)CCC3=O)cn1 [Example 176, (2E)-3-(4-(1-methyl-1H-pyrazol-4-yl)pyridin-3-yl)-N-(1-oxo-2,3-dihydro-1H-inden-5-yl)acrylamide] | 87% | 54% | 92%
5 | Cn1cc(-c2ccncc2/C=C/C(=O)Nc2cccc(-c3cccnc3)c2)cn1 [Example 182, (2E)-3-(4-(1-methyl-1H-pyrazol-4-yl)pyridin-3-yl)-N-(3-(pyridin-3-yl)phenyl)acrylamide] | 78% | 58% | 84%
6 | Cn1cc(-c2ccncc2/C=C/C(=O)Nc2ccc3c(c2)CCCC3=O)cn1 [Example 191, (2E)-3-(4-(1-methyl-1H-pyrazol-4-yl)pyridin-3-yl)-N-(5-oxo-5,6,7,8-tetrahydronaphthalen-2-yl)acrylamide] | 92% | 56% | 96%
7 | O=C(/C=C/c1cnccc1-c1cncs1)Nc1ccc(CN2CCOCC2)cc1 [Example 195, (2E)-N-(4-(morpholin-4-ylmethyl)phenyl)-3-(4-(1,3-thiazol-5-yl)pyridin-3-yl)acrylamide] | 97% | 52% | 94%
8 | O=C(/C=C/c1cnccc1-c1ccns1)Nc1ccc(CN2CCOCC2)cc1 [Example 196, (2E)-N-(4-(morpholin-4-ylmethyl)phenyl)-3-(4-(1,2-thiazol-5-yl)pyridin-3-yl)acrylamide] | 98% | 54% | 101%
9 | CN1CCc2ccc(NC(=O)/C=C/c3cnccc3-c3cnn(C)c3)cc2C1 [Example 212, (2E)-3(4-(1-methyl-1H-pyrazol-4-yl)pyridin-3-yl)-N-(2-methyl-1,2,3,4-tetrahydroisoquinolin-7-yl)acrylamide] | 98% | 52% | 100%
10 | CC(=O)n1cc(-c2ccncc2/C=C/C(=O)Nc2ccc(CN3CCOCC3)cc2)cn1 [Example 218, (2E)-3-(4-(1-Acetyl-1H-pyrazol-4-yl)pyridin-3-yl)-N-(4-(morpholin-4-ylmethyl)phenyl)acrylamide] | 101% | 65% | 96%
11 | COc1ccc(-c2ccncc2/C=C/C(=O)Nc2ccc(CN3CCOCC3)cc2)s1 [Example 220, (2E)-3-(4-(5-methoxy-2-thienyl)pyridin-3-yl)-N-(4-(morpholin-4-ylmethyl)phenyl)acrylamide] | 96% | 58% | 93%
12 | COc1ncc(-c2ccncc2/C=C/C(=O)Nc2ccc(CN3CCOCC3)cc2)s1 [Example 221, (2E)-3-(4-(2-Methoxy-1,3-thiazol-5-yl)pyridin-3-yl)-N-(4-(morpholin-4-ylmethyl)phenyl)acrylamide] | 98% | 63% | 99%
